Key:
[1] = system: Rat2 fibroblasts stably transformed with v-Src/Hu c-Src fusion gene; test: Anchorage independent Src-transformed fibroblast proliferation test procedure; format: cell-based; settings: Rattus norvegicus; for IC50: the 3rd table c6, (a)-(d) = average of two to five runs, read-out: Src TF prolif IC50
Source text: Anchorage Independent Src-transformed Fibroblast Proliferation Test Procedure: Rat2 fibroblasts stably transformed with a plasmid containing a CMV promotor controlled v-Src/Hu c-Src fusion gene in which the catalytic domain of human c-Src is inserted in place of the v-Src catalytic domain in the v-Src gene are used for the measurement of src dependent suspension growth.

p60^c-src (Src) = target: T1, p60^c-src (Src) (Homo sapiens, UniProt P12931); test: Src kinase test procedure (Elisa format); format: biochemical
T1 construct: purchased Upstate Biotechnologies
T1 sequence (P12931 whole entry): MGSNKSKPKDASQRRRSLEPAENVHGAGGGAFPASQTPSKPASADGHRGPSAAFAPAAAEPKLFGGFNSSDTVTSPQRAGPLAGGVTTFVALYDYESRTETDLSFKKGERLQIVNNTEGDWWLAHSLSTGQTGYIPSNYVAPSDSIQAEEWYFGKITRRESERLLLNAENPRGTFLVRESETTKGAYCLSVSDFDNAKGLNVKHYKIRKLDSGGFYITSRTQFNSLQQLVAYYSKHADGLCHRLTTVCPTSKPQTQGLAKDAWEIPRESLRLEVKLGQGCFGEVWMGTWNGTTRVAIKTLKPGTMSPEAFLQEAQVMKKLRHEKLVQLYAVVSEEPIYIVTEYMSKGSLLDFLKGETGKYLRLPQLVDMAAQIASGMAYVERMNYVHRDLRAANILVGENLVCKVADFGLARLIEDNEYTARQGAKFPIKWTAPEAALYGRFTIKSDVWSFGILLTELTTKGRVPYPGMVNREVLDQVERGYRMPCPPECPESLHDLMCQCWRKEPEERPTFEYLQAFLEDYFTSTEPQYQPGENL
Experimental: Inhibitors of p60^c-src (partially purified preparation purchased from Upstate Biotechnologies) tyrosine kinase activity are analyzed in an Elisa format. […] HRP-conjugated anti-phosphotyrosine is used to detect phosphorylated peptide via a color reaction. Conditions recommended by the manufacturer are employed.
Reaction conditions: Five microliter aliquots of each compound prepared fresh at the time of the assay are added as a solution in 10mM HEPES pH 7.5, 10% DMSO to the reaction well. Thirty-five microliters of reaction mix containing Src, buffer and peptide/bovine serum albumin mix are added to the compound wells and incubated at 30°C for 10 minutes (reaction buffer: 50mM TrisHCl pH 7.5, 10mM MgCl2, 0.1mM EGTA, 0.5mM Na3VO4). The reaction is started by addition of 10 microliters of ATP, incubated at 30°C for 1 hour, and stopped by addition of 20 microliters of 0.5M EDTA. The reaction mixture with the phosphorylated peptide is then transferred to a streptavidin-coated microtiter plate (provided in the kit) and allowed to bind for 20 minutes. Unbound peptide and reaction mixture is decanted and the plate is washed with PBS six times. Horseradish peroxidase-conjugated phosphotyrosine antibody supplied in the kit is incubated with the plate for one hour, then decanted. The plate is again washed with PBS six times.

Raf-1 (c-Raf) = target: T2, Raf-1 (c-Raf) (Homo sapiens, UniProt P04049); test: Raf1 kinase cascade assay procedure; format: biochemical
T2 construct: Sf9 insect cell lysate containing full length 6his-tagged recombinant human c-Raf; host or cells: c-Raf: Sf9 insect cell lysate; MEK1 and MAPK: E. coli
T2 sequence (P04049 whole entry): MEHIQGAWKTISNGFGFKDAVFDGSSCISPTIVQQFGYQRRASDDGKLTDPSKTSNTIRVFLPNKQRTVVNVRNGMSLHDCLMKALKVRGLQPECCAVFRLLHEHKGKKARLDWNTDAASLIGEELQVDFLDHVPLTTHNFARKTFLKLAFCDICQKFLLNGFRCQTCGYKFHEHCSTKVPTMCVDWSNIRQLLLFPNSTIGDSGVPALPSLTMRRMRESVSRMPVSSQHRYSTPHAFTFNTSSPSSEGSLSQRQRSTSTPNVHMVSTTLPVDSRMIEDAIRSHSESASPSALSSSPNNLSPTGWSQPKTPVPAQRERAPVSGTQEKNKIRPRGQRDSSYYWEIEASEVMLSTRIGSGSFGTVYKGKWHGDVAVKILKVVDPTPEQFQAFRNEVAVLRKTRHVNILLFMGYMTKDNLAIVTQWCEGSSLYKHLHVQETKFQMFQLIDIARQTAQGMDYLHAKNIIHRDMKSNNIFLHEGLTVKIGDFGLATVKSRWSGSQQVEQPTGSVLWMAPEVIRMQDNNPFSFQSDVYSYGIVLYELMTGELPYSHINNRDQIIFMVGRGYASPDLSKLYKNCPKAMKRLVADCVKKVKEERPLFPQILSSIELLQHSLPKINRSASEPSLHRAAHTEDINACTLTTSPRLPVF
Experimental: (Specific Activity: ~200U/ml). Human Non-active Mek-1-GST and human GST-MAP kinase (recombinant proteins produced in E. coli).
• 1. Assay Dilution Buffer (ADB): 20mM MOPS, pH 7.2, 25mM β-glycerol phosphate, 5mM EGTA, 1mM sodium orthovanadate, 1mM dithiothreitol. • 2. Magnesium/ATP Cocktail: 500µM cold ATP and 75 mM magnesium chloride in ADB. • 4. Active Kinase: Human Active c-Raf: Use at 0.4U per assay point • 5. Non-active GST-MEK1: Use at 0.1µg per assay point. • 6. Non-active GST-p42 MAP Kinase: Use at 1.0 µg per assay point
• 1. TBST - Tris (50 mM, pH 7.5), NaCl (150 mM), Tween-20 (0.05 %) • 2. Superblock (Pierce) • 3. Anti-GST Ab (Pharmacia) • 4. Anti-Phospho MAPK (Sigma) • 5. Anti-Mouse Ab / Europium conjugate (Wallac)
First Stage: c-Raf Dependent Activation of GST-MEK and GST-MAPK • 1. Add […] of ADB per assay (i.e. per well of a 96 well plate) • 2. Add 10 ml of 0.5 mM cold ATP and 75 mM magnesium chloride in ADB. • 3. Add 2 ml of c-Raf (0.4U/assay), in conjunction with 1.6ml non-active MEK1 ([…]). • 4. Add 4 ml of non-active GST-p42 MAP Kinase (1.0 mg/assay). • 5. Incubate for 60 minutes at 30°C in a shaking incubator. • 6. Transfer this mixture to an anti-GST Ab coated 96 well plate (Nunc Immunosorb plates coated o/n with a-GST, then blocked with Pierce Superblock). • 7. Incubate for 60 minutes at 30°C in a shaking incubator Wash 3X with TBST, add Anti-Phospho MAPK (Sigma) (1:3000) • 6. Incubate for 60 minutes at 30°C in a shaking incubator • 7. Wash 3X with TBST, add Anti-Mouse Ab / Europium conjugate (Wallac) (1:500) • 8. Incubate for 60 minutes at 30°C in a shaking incubator • 9. Wash 3X with TBST, Read plates in Wallac Victor model Plate Reader. • 10. Collect data analyze in Excel for single point and IC50 determinations.
Typically Raf-1 assay is run at compound concentrations from 10 µM to 1 nM in half log dilutions. (% inhibition is determined for each compound concentration).

Row | SMILES | IC50 [1] | also measured
1 | COc1cc(Nc2c(C#N)cnc3cc4cc(OC)c(OCCN5CCC(O)CC5)cc4cc23)c(Cl)cc1C [Example 207, 4-(2-Chloro-5-methoxy-4-methylanilino)-8-methoxy-7-[2-(4-hydroxy-1-piperidinyl)ethoxy]benzo[g]quinoline-3-carbonitrile] | 929 nM | 
2 | COc1cc2cc3c(Nc4ccc(Cl)cc4Cl)c(C#N)cnc3nc2cc1OC [Example 177, 4-(2,4-Dichloroanilino)-7,8-dimethoxybenzo[b] [1,8]naphthyridine-3-carbonitrile] |  | inhibition at 5 µM (p60^c-src (Src); dose 5 µM, read-out: Src %Inh): 30%
3 | COc1ccc2cc3ncc(C#N)c(Nc4ccc(Cl)cc4Cl)c3cc2c1 [Example 103, 4-(2,4-Dichloroanilino)-7-methoxybenzo[g]quinoline-3-carbonitrile] |  | inhibition at 0.1 µM (p60^c-src (Src); read-out: Src %Inh): 30%
4 | COc1cc(Nc2c(C#N)cnc3nc4cc(OCCCl)c(OC)cc4cc23)c(Cl)cc1Cl [Example 172, 8-(2-Chloroethoxy)-4-(2,4-dichloro-5-methoxyanilino)-7-methoxybenzo[b][1,8]naphthyridine-3-carbonitrile] | 1880 nM | 
5 | COc1cc(Nc2c(C#N)cnc3cc4cc(OC)c(OCCN5CCN(C)CC5)cc4cc23)c(Cl)cc1F [Example 201, 4-(2-Chloro-4-fluoro-5-methoxyanilino)-8-methoxy-7-[2-(4-methyl-1-piperazinyl)ethoxy]benzo[g]quinoline-3-carbonitrile] | 175 nM | 
6 | N#Cc1cnc2c(oc3ccccc32)c1Nc1ccc(Cl)cc1F [Example 86, 4-(4-Chloro-2-fluorophenylamino)benzo[4,5]furo[3,2-b]pyridine-3-carbonitrile] |  | Src %Inh (p60^c-src (Src); dose 10 µM): 46%; inhibition at 10 µM (p60^c-src (Src); dose 10 µM, read-out: Src %Inh): 54%
7 | COc1cc(Nc2c(C#N)cnc3cc4cc(OCCCN5CCOCC5)c(OC)cc4cc23)c(Cl)cc1Cl [Example 157, 4-(2,4-dichloro-5-methoxyphenylamino)-7-methoxy-8-(3-morpholin-4-yl-propoxy)benzo[g]quinoline-3-carbonitrile] | 38 nM | 
8 | COc1cc(Nc2c(C#N)cnc3c2sc2ccc([N+](=O)[O-])cc23)c(C)cc1Cl [Example 75, 4-(4-Chloro-5-methoxy-2-methylphenylamino)-8-nitrobenzo[4,5]thieno[3,2-b]pyridine-3-carbonitrile] |  | inhibition at 10 µM (p60^c-src (Src); dose 10 µM, read-out: Src %Inh): 0%
9 | COc1cc(Nc2c(C#N)cnc3cc4cc(OC)c(OCCN5CCOCC5)cc4cc23)c(Cl)cc1F [Example 209, 4-(2-Chloro-4-fluoro-5-methoxyanilino)-8-methoxy-7-[2-(4-morpholinyl)ethoxy]benzo[g]quinoline-3-carbonitrile] | 309 nM | 
10 | COc1cc(Nc2c(C#N)cnc3cc4cc(OCCN5CCN(C)CC5)c(OC)cc4cc23)c(Cl)cc1F [Example 211, 4-(2-Chloro-4-fluoro-5-methoxyanilino)-7-methoxy-8-[2-(4-methyl-1-piperazinyl)ethoxy]benzo[g]quinoline-3-carbonitrile] | 128 nM | 
11 | CCOc1cc2cc3c(Nc4cc(OC)c(Cl)cc4C)c(C#N)cnc3cc2cc1OCCN(CC(N)=O)CC(N)=O [Example 194, 2-(Carbamoylmethyl-{2-[4-(4-chloro-5-methoxy-2-methylphenylamino)-3-cyano-7-ethoxybenzo[g]quinolin-8-yloxy]-ethyl}-amino)-acetamide] | > 10000 nM | 
12 | CCOc1cc2cc3ncc(C#N)c(Nc4cc(OC)c(Cl)cc4C)c3cc2cc1OCCN1CCOCC1 [Example 190, 4-(4-Chloro-5-methoxy-2-methylanilino)-8-ethoxy-7-[2-(4-morpholinyl)ethoxy]benzo[g]quinoline-3-carbonitrile] | 170 nM | 
13 | COc1ccc2cc3c(Nc4ccc(Cl)cc4Cl)c(C#N)cnc3cc2c1 [Example 104, 4-(2,4-dichloroanilino)-8-methoxybenzo[g]quinoline-3-carbonitrile] |  | inhibition at 0.1 µM (p60^c-src (Src); read-out: Src %Inh): 30%
14 | COc1cc(Nc2c(C#N)cnc3cc4cc(OCCn5ccnn5)c(OC)cc4cc23)c(Cl)cc1Cl [Example 159, 4-(2,4-Dichloro-5-methoxyphenylamino)-7-methoxy-8-(2-[1,2,3]triazol-1-yl-ethoxy)benzo[g]quinoline-3-carbonitrile] | 73 nM | 
15 | COc1cc(Nc2c(C#N)cnc3cc4cc(OCCN5CCN(C)CC5)c(OC)cc4cc23)c(Cl)cc1C [Example 203, 4-(2-Chloro-5-methoxy-4-methylanilino)-7-methoxy-8-[2-(4-methyl-1-piperazinyl)ethoxy]benzo[g]quinoline-3-carbonitrile] | 71 nM | 
16 | COc1cc(Nc2c(C#N)cnc3cc4c(cc23)ncn4CCN2CCOCC2)c(C)cc1Cl [Example 57, 8-(4-Chloro-5-methoxy-2-methylanilino)-3-[2-(4-morpholinyl)ethyl]-3H-imidazo[4,5-g]quinline-7-carbonitrile] |  | inhibition at 10 µM ([1]; @ dose 10 µM, read-out: Src TF prolif %Inh): 0%
17 | COc1cc(Nc2c(C#N)cnc3cc4cc(OC)c(OCCN5CCN(C)CC5)cc4cc23)c(Cl)cc1C [Example 202, 4-(2-Chloro-5-methoxy-4-methylanilino)-8-methoxy-7-[2-(4-methyl-1-piperazinyl)ethoxy]benzo[g]quinoline-3-carbonitrile] | 68 nM | 
18 | CCOc1cc2cc3c(Nc4cc(OC)c(Cl)cc4C)c(C#N)cnc3cc2cc1OCCN1CCOCC1 [Example 191, 4-(4-Chloro-5-methoxy-2-methylanilino)-7-ethoxy-8-[2-(4-morpholinyl)ethoxy]benzo[g]quinoline-3-carbonitrile] | 22 nM | 
19 | N#Cc1cnc2cc3ccccc3cc2c1Nc1ccc(Oc2ccccc2)cc1 [Example 3, 4-(4-Phenoxyanilino)benzo[g]quinoline-3-carbonitrile] |  | IC50 (Raf-1 (c-Raf)): 90 nM
20 | COc1cc(Nc2c(C#N)cnc3nc4cc(OCCN5CCOCC5)c(OC)cc4cc23)c(Cl)cc1Cl [Example 173, 4-(2,4-Dichloro-5-methoxyanilino)-7-methoxy-8-[2-(4-morpholinyl)ethoxy]benzo[b][1,8]naphthyridine-3-carbonitrile] | 3740 nM | inhibition at 0.1 µM (p60^c-src (Src); read-out: Src %Inh): 33%
21 | COc1cc(Nc2c(C#N)cnc3cc4cc(OCCn5nccn5)c(OC)cc4cc23)c(Cl)cc1Cl [Example 158, 4-(2,4-Dichloro-5-methoxyphenylamino)-7-methoxy-8-(2-[1,2,3]triazol-2-yl-ethoxy)benzo[g]quinoline-3-carbonitrile] | 67 nM | 
22 | COc1cc(Nc2c(C#N)cnc3cc4cc(OCCN5CCOCC5)c(OC)cc4cc23)c(Cl)cc1Cl [Example 129, 4-(2,4-dichloro-5-methoxyanilino)-7-methoxy-8-[2-(4-morpholinyl)ethoxy]benzo[g]quinoline-3-carbonitrile] |  | IC50 (Raf-1 (c-Raf)): 300 nM
23 | COc1cc(Nc2c(C#N)cnc3nc4cc(OC)c(OC)cc4cc23)c(Cl)cc1Cl [Example 165, 4-(2,4-Dichloro-5-methoxyanilino)-7,8-dimethoxybenzo[b] [1,8]naphthyridine-3-carbonitrile] | > 10000 nM | 

Source: EP1242382B1, “TRICYCLIC PROTEIN KINASE INHIBITORS” (Wyeth, priority 1999, dated 2001)
